# Source: patent US20090192149A1, “Imidazo Compounds” (SPEEDEL EXPERIMENTA AG, priority 2006, published 2009)
# Biological target: T1, recombinant human Cyp19 enzyme (Homo sapiens, UniProt P11511)
# T1 construct: purchased Becton Dickinson Biosciences, San Jose, Calif., USA
# T1 sequence (P11511 1-503): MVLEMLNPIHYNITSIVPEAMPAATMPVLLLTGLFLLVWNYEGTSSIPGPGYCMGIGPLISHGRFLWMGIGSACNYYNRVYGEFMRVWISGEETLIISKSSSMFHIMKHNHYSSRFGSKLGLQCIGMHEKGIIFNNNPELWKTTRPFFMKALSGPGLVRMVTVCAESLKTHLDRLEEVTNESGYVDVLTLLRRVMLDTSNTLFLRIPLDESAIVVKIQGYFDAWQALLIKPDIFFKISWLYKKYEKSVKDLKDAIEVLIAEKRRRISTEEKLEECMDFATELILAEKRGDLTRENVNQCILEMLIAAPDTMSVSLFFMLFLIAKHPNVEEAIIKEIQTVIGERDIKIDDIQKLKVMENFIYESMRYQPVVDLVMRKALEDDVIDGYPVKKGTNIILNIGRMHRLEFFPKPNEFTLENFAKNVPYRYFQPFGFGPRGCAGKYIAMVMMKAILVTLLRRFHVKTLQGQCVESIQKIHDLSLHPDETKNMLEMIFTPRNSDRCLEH
# Test: Cyp19/MFC high throughput inhibition kit (Becton Dickinson)
# Assay type: biochemical
# Details: recombinant human Cyp19 supersomes, MFC substrate
# Experimental: A compound of formula (I) is to be understood as a compound having a specific configuration around the designated asymmetric carbon atom labelled “*”. If a synthesis method is used which leads to racemic compounds, the racemate resolution is carried out in accordance with conventional methods, such as via a chiral HPLC column. […] The aforementioned activity can, readily and as described below, be determined by using a commercial Cyp19 enzyme inhibition kit, preferably the Cyp19/methoxy-4-trifluoromethyl-coumarin (MFC) high throughput inhibition kit (Becton Dickinson Biosciences, San Jose, Calif., USA) as described hereafter. In the above-mentioned inhibition kit, compounds of the formula (I) show an inhibiting activity which is at least 10 times higher, but preferably 20 times higher, or more preferably 40 times higher, than the substances of the formula (I) with the opposite configuration around the asymmetric carbon atom labelled “*”. A higher inhibiting activity corresponds to a lower IC50 value.
# These effects are demonstrable in in vitro assay tests using cell-free and cellular systems. […] The Cyp19/Methoxy-4-trifluoromethyl-coumarin (MFC) high throughput inhibition kit (Becton Dickinson Biosciences, San Jose, Calif., USA), for example, is designed to screen for potential inhibitors of Cyp19 catalytic activity in a 96-well format. […]
structure (smiles),measurement,value
"N#Cc1ccc(C2COCc3cncn32)cc1 (single isomer, unassigned) [Example 1, 4-(5,6-Dihydro-8H-imidazo[5,1-c][1,4]oxazin-5-yl)benzonitrile]",IC50,0.0048 µM
N#Cc1ccc(C2COCc3cncn32)cc1 (centres unmarked) [antipode of 1],IC50,8.35 µM
